Data published in patent US20230181580A1, “TREATMENT OF PROLIFERATIVE DISEASES OF THE CNS” (AUCENTRA THERAPEUTICS PTY LTD, priority 2020, published 2023).

Legend:
[1] = tested on: phosphorylated Rb proteins (pRb Ser780, pRbSer795, pRb807/811); test: Western blot analysis of Rb phosphorylation; assay type: cell-based; details: 24 h treatment, FIG. 3A
Procedure: Cells were seeded at a density of 3×10^5 with 10 mL fresh medium on a sterile culture dish and incubated at 37° C. 5% CO2 for overnight prior to compound treatment. After 24 h, cells were harvested with PBS, centrifuged at 300×g for 5 mins, and lysed with 100 μL lysis buffer (25 mM 4-(2-hydroxyethyl)-1-piperazineethanesulphonic acid, 300 mM sodium chloride, 1.5 mM magnesium chloride, 0.5% sodium deoxycholate, 20 mM p-glycerophosphate, 1% Triton X-100, 0.1% sodium dodecyl sulphate, 0.2 mM EDTA, 0.5 mM dithiothreitol, 1 mM sodium orthovanadate and 25× protease inhibitor cocktail). Protein lysate was collected after 10 mins of maximum speed centrifugation at 4° C. The protein concentration of cell lysates was determined through performing a BSA standard curve using the Bio-Rad DC protein assay kit II (Bio-Rad, Sydney, NSW, Australia) according to the manufacturer's protocol. 30 μg protein was measured, mixed with 3× loading buffer and denatured at 95° C. for 5 mins using T100 thermal cycler (Bio-Rad). Molecular mass of each sample was then separated by gel electrophoresis on a 4-20% polyacrylamide gel at 120V for 1 h. The resolved proteins were transferred onto nitrocellulose membranes and blocked with 5% skimmed milk in Tris-buffered saline and Tween 20 (TBST) for 1 h at room temperature. […] Band intensity was determined using a ChemiDoc™ multiplexing imaging system (Bio-Rad). […]

[2] = tested on: MB453; test: MTT proliferation assay, breast; assay type: cell-based; details: 72 h, read-out: Antiproliferative activity GI50 MB453
From the text: Representative compounds from Example 1, were subjected to standard MTT (3-(4,5-dimethylthiazol-2-yl)-2,5-diphenyltetrazolium bromide) and resazurin assays on solid tumour cell lines (including GBM cell lines) and leukemia cell lines, respectively, as previously reported (Wang S et al., J Med Chem 47:1662-1675, 2004; and Diab S. et al. CheMedChem 9:962-972, 2014).

[3] = molecular target: CDK2/A (Homo sapiens, UniProt P24941); test: CDK kinase inhibition assay (radiometric / ADP Glo); assay type: biochemical
Procedure: (§1) Eurofins Pharma Discovery or Reaction Biology Corporation Kinase Profiler services were used to measure inhibition of CDKs and other kinases by radiometric assay (RIA). Inhibition of CDK4/Cyclin D1, CDK6/Cyclin D3 and CDK9/T1 were also determined in-house using ADP Glo Kinase assays (Promega Corporation, Madison Wis., United States of America). Briefly, the kinase reaction for CDK4/Cyclin D1 and CDK6/Cyclin D3 was performed with kinase reaction buffer ([…] Tris base pH 7.5, 20 mM MgCl2, 0.4 mM DTT), 0.1 mg/ml BSA and RB-CTF substrate (retinoblastoma protein1 C-terminal fraction). For CDK9/CyclinT1, the kinase reaction was performed with standard assay buffer and Kinase Dilution Buffer and RBER-IRStide substrate. Serial dilutions of 1:3 were prepared for test compounds for 10 concentrations (from 10 μM to 0.5 nM). The kinase reactions were started by addition of ATP, incubated for 40 min at 37° C. and then stopped by adding 10 μL of ADP Glo reagent. After incubation at room temperature (RT) in the dark for 40 min, 20 μL of kinase detection reagent was added per well and incubated for 40 min. Luminescence was measured using an EnVision Multilabel plate reader (PerkinElmer, Buckinghamshire, United Kingdom). Positive and negative controls were performed in the presence and absence of CDK kinases, respectively. Half-maximal inhibition (IC50) values were calculated using a 4-parameter logistic non-linear regression model with Graphpad prism (Version 6.0). Apparent inhibition constants (Ki) values were calculated from Km (ATP) and IC50 values for the respective kinases.

[4] = molecular target: CDK1/B (Homo sapiens, UniProt P06493); test: as above; assay type: biochemical
CDK1/B, sequence (P06493 whole entry): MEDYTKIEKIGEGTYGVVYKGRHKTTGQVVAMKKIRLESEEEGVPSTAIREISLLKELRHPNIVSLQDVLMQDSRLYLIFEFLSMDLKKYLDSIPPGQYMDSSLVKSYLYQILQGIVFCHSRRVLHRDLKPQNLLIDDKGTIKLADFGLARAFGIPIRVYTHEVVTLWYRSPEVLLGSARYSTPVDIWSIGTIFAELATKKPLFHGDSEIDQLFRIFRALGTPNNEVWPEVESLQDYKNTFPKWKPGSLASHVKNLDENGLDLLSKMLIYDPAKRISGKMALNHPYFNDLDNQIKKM
CDK1/B, sequence (P14635 whole entry partner): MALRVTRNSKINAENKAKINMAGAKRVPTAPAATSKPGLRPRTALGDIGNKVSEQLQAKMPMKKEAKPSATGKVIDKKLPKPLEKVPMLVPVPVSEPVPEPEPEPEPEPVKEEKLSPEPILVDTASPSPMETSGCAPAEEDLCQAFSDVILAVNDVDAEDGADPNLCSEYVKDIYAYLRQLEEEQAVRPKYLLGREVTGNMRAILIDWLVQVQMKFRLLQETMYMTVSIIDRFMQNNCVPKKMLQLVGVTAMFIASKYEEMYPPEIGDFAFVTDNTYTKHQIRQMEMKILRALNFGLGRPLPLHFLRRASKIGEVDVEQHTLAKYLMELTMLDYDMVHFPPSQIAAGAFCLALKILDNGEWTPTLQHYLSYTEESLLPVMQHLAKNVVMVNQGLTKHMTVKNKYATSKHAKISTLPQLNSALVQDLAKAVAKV
Procedure: as §1

[5] = molecular target: CDK9/T1 (Homo sapiens, UniProt P50750); test: as above; assay type: biochemical
CDK9/T1, sequence (P50750 whole entry): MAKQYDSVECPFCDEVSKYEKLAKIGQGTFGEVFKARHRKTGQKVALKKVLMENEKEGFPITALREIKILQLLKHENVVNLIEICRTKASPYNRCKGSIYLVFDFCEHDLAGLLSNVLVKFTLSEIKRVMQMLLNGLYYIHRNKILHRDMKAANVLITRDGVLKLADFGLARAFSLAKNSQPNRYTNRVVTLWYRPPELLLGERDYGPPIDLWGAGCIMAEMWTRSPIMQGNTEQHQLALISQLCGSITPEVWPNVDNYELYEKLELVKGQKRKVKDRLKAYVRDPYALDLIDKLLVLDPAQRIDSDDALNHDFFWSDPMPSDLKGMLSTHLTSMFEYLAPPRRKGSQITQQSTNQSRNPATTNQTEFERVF
CDK9/T1, sequence (O60563 whole entry partner): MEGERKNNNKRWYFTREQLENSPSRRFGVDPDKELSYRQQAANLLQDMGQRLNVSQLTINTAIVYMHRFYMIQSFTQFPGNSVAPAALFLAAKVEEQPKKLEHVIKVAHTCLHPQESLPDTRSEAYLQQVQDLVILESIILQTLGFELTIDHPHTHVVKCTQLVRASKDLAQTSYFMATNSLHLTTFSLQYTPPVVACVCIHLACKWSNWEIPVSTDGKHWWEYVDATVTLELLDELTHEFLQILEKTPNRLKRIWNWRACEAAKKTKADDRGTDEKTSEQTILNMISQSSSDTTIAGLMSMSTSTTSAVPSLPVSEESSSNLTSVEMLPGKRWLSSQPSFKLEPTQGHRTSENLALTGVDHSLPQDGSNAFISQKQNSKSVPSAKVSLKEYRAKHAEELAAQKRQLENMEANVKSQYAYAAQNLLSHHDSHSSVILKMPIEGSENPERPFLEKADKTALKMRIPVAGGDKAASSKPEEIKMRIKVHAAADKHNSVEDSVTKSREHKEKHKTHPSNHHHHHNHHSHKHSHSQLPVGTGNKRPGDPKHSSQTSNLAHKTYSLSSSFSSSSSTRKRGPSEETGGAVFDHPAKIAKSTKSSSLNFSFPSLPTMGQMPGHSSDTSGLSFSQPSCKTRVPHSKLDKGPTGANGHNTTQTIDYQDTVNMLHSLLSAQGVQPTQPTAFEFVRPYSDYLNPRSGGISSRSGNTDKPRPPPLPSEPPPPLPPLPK
Procedure: as §1

[6] = molecular target: CDK7/H (Homo sapiens, UniProt P50613); test: as above; assay type: biochemical
CDK7/H, sequence (P50613 whole entry): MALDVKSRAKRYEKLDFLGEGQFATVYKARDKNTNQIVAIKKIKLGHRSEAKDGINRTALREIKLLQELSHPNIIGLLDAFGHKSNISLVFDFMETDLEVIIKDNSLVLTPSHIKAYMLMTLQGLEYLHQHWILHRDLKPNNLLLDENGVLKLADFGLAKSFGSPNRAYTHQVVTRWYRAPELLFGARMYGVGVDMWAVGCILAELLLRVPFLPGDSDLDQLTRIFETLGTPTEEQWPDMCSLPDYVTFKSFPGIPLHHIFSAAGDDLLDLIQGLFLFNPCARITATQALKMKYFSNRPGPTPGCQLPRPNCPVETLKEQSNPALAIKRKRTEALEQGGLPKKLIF
CDK7/H, sequence (P51946 whole entry partner): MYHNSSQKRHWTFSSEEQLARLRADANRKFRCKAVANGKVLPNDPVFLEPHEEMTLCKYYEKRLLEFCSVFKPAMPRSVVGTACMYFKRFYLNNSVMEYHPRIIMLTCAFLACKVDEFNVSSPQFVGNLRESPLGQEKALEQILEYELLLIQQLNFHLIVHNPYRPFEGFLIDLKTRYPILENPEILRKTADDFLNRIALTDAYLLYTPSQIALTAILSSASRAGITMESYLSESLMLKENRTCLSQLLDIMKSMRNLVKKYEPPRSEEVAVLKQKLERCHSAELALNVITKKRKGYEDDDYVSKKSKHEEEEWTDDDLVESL
CDK7/H, sequence (P51948 whole entry partner): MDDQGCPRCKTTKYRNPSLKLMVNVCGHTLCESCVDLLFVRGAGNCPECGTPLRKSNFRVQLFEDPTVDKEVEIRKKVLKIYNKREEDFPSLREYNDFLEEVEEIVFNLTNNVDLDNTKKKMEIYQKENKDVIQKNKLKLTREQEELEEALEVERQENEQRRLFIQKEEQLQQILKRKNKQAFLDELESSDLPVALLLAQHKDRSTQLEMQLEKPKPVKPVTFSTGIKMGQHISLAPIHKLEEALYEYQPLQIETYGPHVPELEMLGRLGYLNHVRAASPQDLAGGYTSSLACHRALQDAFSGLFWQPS
Procedure: as §1

[7] = tested on: GBM patient-derived G4T cells; test: Orthotopic GBM patient-derived G4T xenograft; assay type: in vivo, NSG mice; details: single agent or with TMZ; p<0.001
Procedure: In a separate study, NSG mice (n=8) orthotopically engrafted with GBM patient-derived G4T cells were administered with vehicle, compound 1, TMZ, and co-treatment of compound 1 and TMZ, respectively, as shown in FIG. 6B. The disease burden of each of the treatment groups was measured by bioluminescent whole-body imaging.

[8] = tested on: GBM cell lines (U87, U251, T98G); test: In vitro tumorigenicity (colony formation) assay; assay type: cell-based; details: 10 days, crystal violet staining, FIG. 3B
Procedure: All three GBM cell lines used in this example, namely U87, U251 and T98G, were cultured in Eagle's Minimum Essential Medium (EMEM) with 10% fetal bovine serum in 75 cm^2 flasks at 37° C. and 5% CO2. All cell lines were confirmed to be mycoplasma-free prior to any experiment setup.
A density of 200 to 400 cells/well was seeded in a twelve-well plate and incubated for overnight prior to compound treatment. […] After 10 days, cells were washed with PBS, fixed and stained with crystal violet staining solution (0.05% crystal violet, 1% formaldehyde, 1% PBS, 1% ethanol); the results are shown in FIG. 3B.

`CNc1nc(C)c(-c2nc(Nc3ccc(N4CCC(N(C)C)CC4)cn3)ncc2F)s1` [Compound 1, 5-(2-((5-(4-(dimethylamino)piperidin-1-yl)pyridin-2-yl)amino)-5-fluoropyrimidin-4-yl)-N,4-dimethylthiazol-2-amine] was tested, and the “level of phosphorylated Rb proteins” value [1] was “reduces the level of phosphorylated Rb proteins”, the GI50 [2] was 330 nM and the Ki [3] was > 1000 nM. The Ki [4] was > 1000 nM, the Ki [5] was > 1000 nM and the Ki [6] was > 1000 nM. For the same compound, the “inhibition of tumour growth (bioluminescent imaging)” value [7] was “significant inhibition of tumour growth either as a single agent or in combination with TMZ” and the “growth and proliferation (colony formation)” value [8] was “inhibits the growth and proliferation of all three GBM cell lines”.
